“And” between values parts separate entries of the source, which are not always exact repeats. Identical values can stand only once. Counter-ions that a name gives are not always drawn. Each block holds one compound with its values, some of them ahead of it.
Assays:
[1] = Example 10: solubility of sertraline hydrochloride in organic acid solutions; conditions: water (no acid excipient), thermodynamic from solid
[2] = Example 13: screening of excipients that inhibit precipitation or gelation of sertraline lactate when chloride is present; assay type: physicochemical; conditions: sertraline lactate with excipient
[3] = Example 15: sertraline dissolution rate from packed powder in gastric buffer; assay type: physicochemical
[4] = Example 1: plasma sertraline pharmacokinetics, 200 mg bolus vs 15 hr divided dosing; assay type: in vivo; conditions: male, human, oral
[5] = tested on: healthy male human subjects; assay: Example 2: side effect visual analogue scales and emesis; assay type: in vivo; conditions: 200 mg bolus dose group (n=14)
[6] = tested on: healthy male human subjects; conditions: Study I
[7] = Example 2: plasma sertraline pharmacokinetics, 200 mg bolus vs 7 hr divided dosing; assay type: in vivo; conditions: male, human, oral, mean
[8] = tested on: healthy male human subjects; assay: Example 6 Study II: emesis, regurgitation and PK/PD plots
[9] = tested on: healthy male human subjects; assay: Example 1: side effect visual analogue scales and emesis; assay type: in vivo; conditions: 15 hr divided dose regimen (15 subjects)
[10] = Mechanical properties of compacts (compression, indentation hardness, moduli, tensile strength); assay type: physicochemical; conditions: for Compression Stress / Solid Fraction: Compact Preparation; for Dynamic Indentation Hard. / Reduced Elastic Modulus: Dynamic Indentation; for Tensile Strength: Tensile Fracture

solubility [1]: 25 mg/mL
Compound: CN[C@H]1CC[C@@H](c2ccc(Cl)c(Cl)c2)c2ccccc21 [Sertraline hydrochloride]

Sertraline Dissolution Rate ([3]; Span 60 5.0, ascorbic 51.0, lactose 15, lactate 14 wt %): 9.5 mg/ml-min
Compound: Span ® 60

Cmax [4]: 32 ng/mL | Tmax [4]: 16 h | PK/PD plot of average nausea score vs plasma sertraline concentration (FIG. 6) ([6]; 200 mg bolus dose): clockwise hysteresis | diarrhea score vs plasma sertraline concentration curve ([6]; 200 mg bolus dose): clockwise hysteresis | time of maximum diarrhea score ([6]; post-dose): 3 h | Tmax ([7]; 25 mg per hr for 7 hr): 10.4 h | Cmax ([7]; 25 mg solution per hr for 7 hr (eight doses, 200 mg)): 46 ng/mL
Compound: CN[C@H]1CC[C@@H](c2ccc(Cl)c(Cl)c2)c2ccccc21 [Sertraline]
emetic events [5]: 4 | subjects who exhibited regurgitation ([8]; 200 mg dose group): four | subjects with emesis ([8]; 200 mg dose group): Four | time of emesis in individual subjects ([8]; 200 mg dose group): 2.6 h and 2.8 h and 3.8 h | individual PK/PD plots for regurgitation ([8]; the four subjects with regurgitation): clockwise hysteresis | emetic episodes [9]: no emetic episodes

tensile strength (in words) [10]: very high | Compression Stress [10]: 52.8 (0.7) Mpa | Solid Fraction [10]: 0.862 | Dynamic Indentation Hard. [10]: 81.6 (1.6) Mpa | Reduced Elastic Modulus [10]: 7.4 (0.6) GPa | Elastic Modulus ([10]; Quasistatic Indentation): 2.0 (0.2) Gpa | Quasistatic Indentation Hard. ([10]; Quasistatic Indentation): 31.1 (1.4) Mpa | Shear Modulus ([10]; Quasistatic Indentation): 113.9 (4.6) Mpa | Tensile Strength [10]: 0.56 (0.02) Mpa | Sertraline Dissolution Rate ([3]; no candidate excipient, ascorbic 51.0, lactose 20, lactate 14 wt %): 3.5 mg/ml-min | Sertraline Dissolution Rate ([3]; sertraline lactate 100 wt %, no excipient): 0.9 mg/ml-min
Compound: CN[C@H]1CC[C@@H](c2ccc(Cl)c(Cl)c2)c2ccccc21.C[C@H](O)C(=O)O [Sertraline L-lactate]

Second part, the compound before the results:

Compound: O=C1O[C@H]([C@@H](O)CO)C(O)=C1O [Ascorbic acid]
Observation After NaCl Addition ([2]; NaCl 100 mM): precipitate

Compound: CCCCCCCC/C=C\CCCCCCCC(=O)OCC(O)CO (stereo not shown) [Myrerol ® (18-99), Glyceryl Monooleate]
Sertraline Dissolution Rate ([3]; excipient 5.0, ascorbic 49.5, lactose 12.5, lactate 14 wt %): 6.4 mg/ml-min

Compound: CCCCCCCCCCCC(=O)OCC(O)CO (stereo not shown) [Imwitor ® 312, Glyceryl Monolaurate]
Sertraline Dissolution Rate ([3]; excipient 5.0, ascorbic 49.5, lactose 12.5, CaCO3 5, lactate 14 wt %): 20.9 mg/ml-min | Sertraline Dissolution Rate ([3]; excipient 6.8, aspartic 74.2, lactate 19 wt %): 5.3 mg/ml-min

Compound: CCCCCCCCCCCCCCCC(=O)OC[C@H](O)[C@H]1OC(=O)C(O)=C1O [Ascorbyl palmitate]
Sertraline Dissolution Rate ([3]; excipient 6.8, no acid, lactose 74.2, lactate 19 wt %): 4.3 mg/ml-min

Compound: N[C@@H](Cc1c[nH]cn1)C(=O)O [Histidine]
Final Sertraline Concentration ([2]; NaCl 150 mM): 110 mg/mL | Observation After NaCl Addition ([2]; NaCl 150 mM): slight precipitate

Compound: Sertraline acetate
elastic modulus (in words) [10]: relatively low | Compression Stress [10]: 36.7 (2.5) Mpa | Solid Fraction [10]: 0.831 | Dynamic Indentation Hard. [10]: 60.0 (0.4) Mpa | Reduced Elastic Modulus [10]: 5.1 (0.5) GPa | Quasistatic Indentation Hard. ([10]; Quasistatic Indentation): 25.1 (1.3) Mpa | Shear Modulus ([10]; Quasistatic Indentation): 99.9 (19.1) Mpa | Tensile Strength [10]: 0.52 (0.03) Mpa | ductility (in words) ([10]; from dynamic indentation hardness): high (dynamic indentation hardness values below 100 Mpa are high)

Compound: CCCCCCCCCCCCCCCCCC(=O)OCC(O)CO (stereo not shown) [Imwitor ® 191, Glyceryl Monostearate]
Sertraline Dissolution Rate ([3]; excipient 5.0, ascorbic 49.5, lactose 12.5, CaCO3 1.0, lactate 14 wt %): 8.0 mg/ml-min

— patent US6517866B1 (Pfizer Inc., priority 1997, dated 2003)
